Laboratory results reported in US12005128B1, “Near infrared small molecule probes for the detection of cellular senescence” (UNM Rainforest Innovations, priority 2019, dated 2024).

Experiments:
[1] = test system: MCF7 cells; test: Flow cytometry detection of senescence in drug or radiation treated cancer cells; assay type: cell-based, human
Procedure: FIG. 18 is a graph showing Flow cytometry of MCF7 cells without treatment, or with CPT, CPT/CHX, or radiation treatment. Probe concentration, 10 μM. λex=640 nm; PerCP bandpass filter at 675/25 nm. ***P<0.001.
(§1) With the confidence of our probe being able to detect β-gal in live cells, we moved further to evaluate whether it could differentiate senescent cells and normal cells. Human cervical cancer cells (HeLa) and metastatic breast cancer cells (MCF7), were used in all four groups of cells evaluated. Senescence in HeLa and MCF7 cells were induced using camptothecin (CPT), an inhibitor of DNA topoisomerase I that could cause lethal DNA strand breaks^59. […] Radiation therapy is another effective method for cancer treatment in clinic; it can also induce cell cycle arrest leading to senescence. All four groups of cells, with no drug treatment, with CPT treatment, with both CPT and CHX treatment, or with 10 Gy radiation treatment, were then incubated with our NIR-BG probe, followed by flow cytometry (FIGS. 16-19).

[2] = test system: HeLa cells; test: as above; assay type: cell-based, human
Procedure: FIG. 16 is a graph showing detection of senescence in human cancer cells via flow cytometry of HeLa cells without treatment, or with CPT, CPT/CHX, or radiation treatment. Probe concentration, 10 μM. λex=640 nm; PerCP bandpass filter at 675/25 nm. ***P<0.001.
as §1

[3] = test system: HeLa tumors; test: HeLa tumor growth with and without CPT treatment; assay type: in vivo; settings: HeLa xenografted mice, systemic treatment
Excerpt: (The tumors of control group reached the maximum volume limitation and were imaged and euthanized.)

[4] = test system: HeLa cells; test: Western blot of cell lysates for β-gal, p16 and p21; assay type: cell-based, human
Excerpt: FIG. 20 is a western blot of cell lysates of β-gal, p16, and p21 expression in HeLa cells without drug treatment, with CPT or radiation treatment. ***P<0.001, **P<0.005.
FIG. 21 is a quantification of FIG. 20.
(§2) Cell cycle inhibitors p21 and p16 are often expressed by senescent cells^1. Therefore, we examined the cell lysates of all cell samples from the imaging studies using Western blot (FIGS. 20-24). […] In addition to HeLa cells, MCF7 cells also expressed higher levels of p16 and p21 upon CPT treatment (FIGS. 22, 23). The Western blot results confirmed the senescent state of these drug or radiation treated cells used in the imaging experiments.

[5] = test system: MCF7 cells; test: as above; assay type: cell-based, human
Excerpt: FIG. 22 is a western blot of β-gal, p16, and p21 expression in MCF7 cells without drug treatment, with CPT or radiation treatment. ***P<0.001, **P<0.005.
FIG. 23 is a quantification of FIG. 22.
as §2

[6] = test system: CT26.CL25 cells; test: Fluorescence microscope imaging of LacZ(+) cells by NIR-BG1 and NIR-BG2; assay type: cell-based, mouse
Excerpt: (§3) In order to further verify that our probe can specifically detect β-gal in cells, CT26.CL25 cells were imaged with our probes and compared with the CT26.WT cells.

[7] = test system: HeLa cells; test: Imaging of β-gal in senescent and normal HeLa cells by NIR-BG1 and NIR-BG2; assay type: cell-based, human; settings: for NIR signal in normal cells: normal HeLa cells
[8] = test system: CT26.WT cells; test: Fluorescence microscope imaging of wild type cells by NIR-BG1 and NIR-BG2; assay type: cell-based, mouse
Excerpt: as §3

[9] = test system: HeLa tumors; test: HeLa xenografts imaging of senescence by NIR-BG1 and NIR-BG2; assay type: in vivo, mice; settings: for fluorescence of senescent tumor relative to normal tumor: CPT vs saline, quantification of optical imaging; for fluorescence of senescent tumor relative to normal tumor / fluorescence of CPT treated tumor compared to saline treated tumor: tail vein injection
Procedure: HeLa xenografts imaging was successfully performed to further evaluate the capability of NIR-BG1 and NIR-BG2 to visualize senescence in vivo. HeLa tumor-bearing mice were treated with CPT or saline to induce the senescent cancer cells. […] Ex vivo imaging and quantitative analysis of the tumors and organs further confirmed the in vivo imaging results.

[10] = test system: CT26.WT cells
Procedure: (§6) In order to see whether our NIR-BG probe can be used for β-gal detection in live cells, we chose an engineered cell line that stably express LacZ(+), the gene that encodes β-gal. […] Cell samples after incubating with our NIR-BG probe were analyzed using flow cytometry (FIG. 13-15) and confocal microscopy (not shown).

[11] = test system: β-gal in LacZ(+) cells (CT26.CL25); test: Flow cytometry detection of β-gal in LacZ(+) live cells; assay type: cell-based, mouse; settings: CT26.CL25, 1 hour and 4 hours, probe 10 μM, λex=640 nm
Procedure: FIG. 13 is a graph showing flow cytometry detection of β-gal by the NIR-BG probe in LacZ(+) cells (CT26.CL25) probe (10 μM), λex=640 nm.
(§4) FIG. 15 depicts the quantification of the mean fluorescence intensity in FIGS. 13 and 14.

[12] = test system: MCF7 cells; test: Confocal microscopy of normal and senescent cells; assay type: cell-based, human
Excerpt: (§5) Since SABG is localized in the lysosome, we then performed confocal microscopy of the normal and senescent HeLa or MCF7 cells (Not shown). […] X-gal staining also verified the existence of SABG in cells after chemotherapy and radiation therapy.

[13] = test system: HeLa cells; test: Confocal microscopy of normal and senescent cells; assay type: cell-based, human
Excerpt: as §5

[14] = test system: CT26.CL25 cells
Procedure: as §6

[15] = test system: CT26.WT cells; test: Flow cytometry, negative control cells; assay type: cell-based, mouse; settings: same treatment, probe 10 μM, λex=640 nm
Procedure: FIG. 14 is a graph showing flow cytometry detection of negative control CT26.WTcells probe (10 μM), λex=640 nm.
as §4

[16] = test system: β-galactosidase
Excerpt: FIG. 25A is absorbance and emission spectra of the unactivated NIR-BG probe by β-galactosidase.
FIG. 25B is absorbance and emission spectra of the activated NIR-BG probe by β-galactosidase.

[17] = test system: CT26.CL25 and CT26.WT tumors; test: Fluorescence imaging of CT26 tumors with and without active β-gal; assay type: in vivo, mice
Excerpt: In a preliminary experiment, we used the genetically modified mice colon cancer cell line CT26 to determine whether NIR-BG could differentiate tumors with and without active β-gal (Not shown). […] We also confirmed β-gal expression in resected whole tumor and tumor slides (Not shown).

[18] = test system: HeLa tumors; test: Fluorescence imaging of chemotherapy-induced senescence in HeLa xenografts (NIR-BG); assay type: in vivo, mice; settings: 675 nm excitation and 720 nm emission
Procedure: We then moved on to HeLa xenografted mice models to see whether probe NIR-BG could visualize chemotherapy-induced senescence in tumors. (FIGS. 26-28) Tumor-bearing mice were first systemically treated with CPT or saline before the probe NIR-BG was injected. […] We were delighted to find that NIR-BG behaved similarly in the drug-treated mice (with drug-induction triggered expression of β-gal) to the CT26 tumor models (with genetically expressed β-gal). […] While not depicted, resected intact whole tumor staining, histochemical staining with X-gal and immunofluorescent staining of tumor tissue with antibodies against β-gal further confirmed the probe activation in senescent tumors.

[19] = test system: CT26.CL25 cells; test: Confocal fluorescence microscopy of LacZ(+) live cells; assay type: cell-based, mouse
Procedure: (§7) In order to see whether our NIR-BG probe can be used for β-gal detection in live cells, we chose an engineered cell line that stably express LacZ(+), the gene that encodes β-gal. CT26.CL25, a mouse colon fibroblast carcinoma cell line that express β-gal, was therefore used in our initial live cell experiments. […] Cell samples after incubating with our NIR-BG probe were analyzed using flow cytometry (FIG. 13-15) and confocal microscopy (not shown).

[20] = test system: CT26.WT cells; test: Confocal fluorescence microscopy, wild type control cells; assay type: cell-based, mouse; settings: after 4-hour incubation
Procedure: as §7

[21] = test system: β-gal; settings: cited from earlier work

With `C[C@@H]1C[C@@H]([C@H](O)CC2CC(=O)NC(=O)C2)C(=O)[C@@H](C)C1` [CHX, cycloheximide, reference compound] the “NIR-BG fluorescence in cells treated with both CPT and CHX compared to the CPT-treated group” value ([1]; MCF7) was “significantly reduced” and the “NIR-BG fluorescence in cells treated with both CPT and CHX compared to the CPT-treated group” value [2] was “significantly reduced”.

With `CC[C@@]1(O)C(=O)OCc2c1cc1n(c2=O)Cc2cc3ccccc3nc2-1` [CPT, camptothecin] the “tumor growth compared to saline only” value [3] was “significantly inhibited”, the “p16 and p21 expression compared with normal cells” value [4] was “both increased” and the “β-gal levels compared with the control cells” value [4] was “elevated”. The “p16 and p21 expression upon treatment” value [5] was “higher levels” and the “β-gal levels compared with the control cells” value [5] was “elevated”.

In the case of `CCC[N+]1=C(/C=C/C2=C3Oc4cc(OCc5ccc(O[C@@H]6O[C@H](CO)[C@H](O)[C@H](O)[C@H]6O)cc5)ccc4C=C3CCC2)C(C)(C)c2ccccc21` [NIR-BG1], the NIR fluorescence [6] is reported as “high NIR fluorescence”, the “NIR signal in normal cells” value [7] is reported as “no significant signal” and the “NIR signal in senescent cells” value ([7]; senescent HeLa cells) is reported as “showed NIR signals”. For the same compound, the “signal in the NIR channel” value [8] was “background signal”, the “fluorescence of senescent tumor relative to normal tumor” value [9] was 2.84 times and the “fluorescence of CPT treated tumor compared to saline treated tumor” value [9] was “significantly increased fluorescence”.

In the case of `CCC[N+]1=C(/C=C/C2=C3Oc4cc(OCc5ccc(O[C@@H]6O[C@H](CO)[C@H](O)[C@H](O)[C@H]6O)cc5)c(C(F)F)cc4C=C3CCC2)C(C)(C)c2ccccc21` [NIR-BG2], the NIR fluorescence [6] is reported as “high NIR fluorescence”, the “NIR signal compared with NIR-BG1” value [6] is reported as “significantly higher” and the “NIR signal in normal cells” value [7] is reported as “no significant signal”. For the same compound, the “NIR signal compared with NIR-BG1” value ([7]; senescent HeLa cells) was “significantly higher”, the “NIR signal in senescent cells” value ([7]; senescent HeLa cells) was “showed NIR signals” and the “signal in the NIR channel” value [8] was “background signal”. The “signal and accumulation in the tumors compared with NIR-BG1” value [9] was “much higher signal and extended accumulation”, the “fluorescence of senescent tumor relative to normal tumor” value [9] was 3.06 times and the “fluorescence of CPT treated tumor compared to saline treated tumor” value [9] was “significantly increased fluorescence”.

In the case of `CCC[N+]1=C(/C=C/C2=C3Oc4cc(O[C@@H]5O[C@H](CO)[C@H](O)[C@H](O)[C@H]5O)ccc4C=C3CCC2)C(C)(C)c2ccccc21` [NIR-BG], the “toxicity in cell culture (cell viability)” value [10] is reported as “did not appear toxic”, the flow cytometry fluorescence [11] is reported as “obvious fluorescence” and the “colocalization of probe signal with lysosome and β-gal in senescent cells” value [12] is reported as “well colocalized”. The “confocal fluorescence in CPT or radiation treated cells versus control cells without treatment” value [12] was “strikingly higher”, the “colocalization of probe signal with lysosome and β-gal in senescent cells” value [13] was “well colocalized” and the “confocal fluorescence in CPT or radiation treated cells versus control cells without treatment” value [13] was “strikingly higher”. The “toxicity in cell culture (cell viability)” value [14] was “did not appear toxic”, the flow cytometry fluorescence [15] was “only background signal” and the maximal absorption ([16]; activated probe) was 680 nm. The maximal emission ([16]; activated probe) was 710 nm, the absorption peak ([16]; unactivated probe) was “around 640 nm” and the emission peak ([16]; unactivated probe) was “around 660 nm”. For the same compound, the “difference in tumor signal, CT26.CL25 versus CT26.WT tumors” value ([17]; 640 nm excitation and 680 nm emission) was “minimal”, the “tumor signal, LacZ(+) CT26.CL25 versus CT26.WT tumors” value ([17]; 1 h after probe injection, 675 nm excitation and 720 nm emission) was “significantly higher signals” and the “flow cytometry fluorescence of CPT or radiation treated cells compared to untreated control cells” value ([1]; MCF7, probe 10 μM, λex=640 nm) was “significantly higher fluorescence”. For the same compound, the “tumor signal of activated form, CPT treatment versus saline” value [18] was “significantly higher signal”, the “flow cytometry fluorescence of CPT or radiation treated cells compared to untreated control cells” value ([2]; probe 10 μM, λex=640 nm) was “significantly higher fluorescence” and the “colocalization of NIR signal with β-gal expression” value ([19]; CT26.CL25) was “highly colocalized”. The confocal fluorescence signal ([19]; CT26.CL25, 1-hour probe treatment) was “obvious” and the “confocal fluorescence in the NIR channel” value [20] was “no fluorescence”.

In the case of “hydroxymethyl rhodol (HMR) β-galactoside”, the fluorescence turn-on ratio [21] is listed as 1,400 fold.
